Measured values: article PMC3356326 (PLoS ONE, 2012)
Where two headings read alike, the source gives them in different places.

Tests used:
U87MG tumor-bearing mice = test: Logan graphical analysis with image-derived input function of 60-min dynamic PET: volumes of distribution; assay type: in vivo, mouse; settings: mean ± SD, n = 4/group
Method: (§1) Dynamic PET data acquisition was performed using an Inveon microPET scanner (Siemens Medical Solutions). With the assistance of the Inveon system's positioning laser, U87MG tumor-bearing mouse was placed with its tumor located at the center of field of view (FOV), where the highest imaging sensitivity can be achieved. […] During the acquisition period, a thermostat-controlled thermal heater maintained the body temperature of mice. PET images were reconstructed with 2 iterations of 3-dimensional ordered-subsets expectation maximum (3D OSEM) with 14 subsets, followed by 18 iterations of maximum a posteriori (MAP) algorithm with a smoothing parameter of 0.1 (frame rates: 10×30 s, 5×60 s, 5×120 s and 10×240 s). No attenuation correction was performed in this study.
(§2) In the dynamic PET image analysis, regions of interest (ROIs) were measured with the Inveon Research Workplace (IRW) 3.0 software. ROI was determined by manually superimposing the ellipsoid volume of interest (VOI) to the target tissue on the last frame of the entire 60-min dynamic image sequence. Then a threshold of 30% maximum was set to screen the voxels with lower values in the entire VOI because of possible tumor heterogeneity and shape irregularity. The time–activity curves were derived by superimposing the same VOI on each time frame of the entire 60-min dynamic image sequence and the value of each time point represents the overall concentration of radioactivity in the tissue. The activity concentrations were determined by the mean pixel intensity within each VOI, which were converted to µCi/ml using a calibration constant. Assuming the tissue density of 1 g/ml, the ROI activity was converted to µCi/g and normalized as percent injected dose per gram (%ID/g). The tissue uptake quantification of static scan at 60 min was determined from the last frame of dynamic images. The arterial blood input function was estimated by drawing a VOI in the region of left ventricle on the reconstructed PET image at the 0.5 min time point (the second frame of dynamic PET image series). The region of muscle contralateral to the tumor was selected as the reference tissue.
Kinetic analysis of regional TACs was performed based on two-tissue (three-compartment) and one-tissue (two-compartment) model (Fig. 2). The three-compartment model consists of unmetabolized radiotracer in arterial blood plasma (Cp), free or non-specific binding tracer in interstitial and intracellular space (Ct), and tracer bound specifically to integrin (Cm). Both Ct and Cm occupy the same physical volume. The ROI(t) represents the sum of radioactivity from all compartments and includes the plasma volume fraction. Similarly, the two-compartment model describes RGD tracer kinetics using muscle as reference tissue and Ctref represents free (non-specific binding) tracer in the reference tissue (muscle) region. Generally speaking, kinetic parameters K1 [ml/g/min], k2 [1/min], k3 [1/min], k4 [1/min] represent the transport or binding rates of plasma perfusion into tissue, clearance from plasma, specific binding and dissociation, respectively.
Based on Logan plot shown in Eq. 1 [28], [33], the ratio between the integral of Cp(t) and the instantaneous value of ROI(t), and the ratio between the integral and the instantaneous value of ROI(t) become linearly related when the exchange between the target tissue and plasma reaches an equilibrium (t>t*). [drawing 1] (1) DV denotes the distribution volume and can be easily calculated from the linear regression. DV is a measure of the capacity of tissue to bind a particular tracer and can be regarded as the sum of specific (VS) and nonspecific distribution (VND). [drawing 2] (2) [drawing 3] (3) Total volume of distribution is defined in equation 4. [drawing 4] (4) K1, k2, k3, and k4 are calculated by linear fitting to 60-min dynamic PET data.

[1] = Static PET image quantification of tissue uptake at 60 min (last frame of dynamic scan); assay type: in vivo; settings: female, athymic nude, mouse, iv, 3.7 MBq, total radioactivity, tail-vein injection ~3.7 MBq, static PET image at 1 h, mean ± SD, n = 4/group
Method: The U87MG human glioblastoma tumor model, which has been documented to express high level of integrin αvβ3 [32], was selected for PET imaging. The U87MG cells obtained from ATCC (Manassas, VA) were cultured in DMEM medium supplemented with 10% fetal bovine serum (FBS), 100 IU/mL penicillin, and 100 µg/mL streptomycin (Invitrogen), and in a humidified atmosphere containing 5% CO2 at 37°C. The xenografted model was established by inoculation of 5×10^6 cells into the left shoulder of each female athymic nude mouse at 5–6 weeks of age (Harlan Laboratories). Tumor growth was monitored by caliper measurements of perpendicular axes of the tumor three times a week after the tumors are palpable. The tumor volume was determined as the formula: V = a×(b^2)/2, where a and b are the length and width of each tumor, respectively, in mm. The U87MG xenografted mice underwent PET imaging when the tumor volume reached about 300 mm^3 (about 3 weeks after inoculation). This study was approved by the NIH Clinical Center Animal Care and Use Committee (ACUC). Moreover, all mice were maintained in a specific pathogen-free facility in accordance with the requirements of the ACUC.
as §1, §2

[2] = kidneys, U87MG tumor-bearing mice, read-out: Tissue uptake, Kidneys
[3] = liver, U87MG tumor-bearing mice, read-out: Tissue uptake, Liver
[4] = muscle, U87MG tumor-bearing mice, read-out: Tissue uptake, Muscle
[5] = tumor (U87MG xenograft), U87MG xenograft, female athymic nude mice, read-out: Tissue uptake, Tumor

Volume of Distribution (VT), Kidneys (U87MG tumor-bearing mice) | Volume of Distribution (VT), Liver (U87MG tumor-bearing mice) | Volume of Distribution (VT), Muscle (U87MG tumor-bearing mice) | Volume of Distribution (VT), Tumor (U87MG tumor-bearing mice) | tissue uptake at 1 h [1, 2] [%ID/g] | tissue uptake at 1 h [1, 3] [%ID/g] | tissue uptake at 1 h [1, 4] [%ID/g] | tissue uptake at 1 h [1, 5] [%ID/g] | Structure (SMILES)
5.24±0.24 | 1.23±0.085 | 0.53±0.086 | 2.65±0.34 | – | – | – | – | N=C(N)NCCC[C@@H]1NC(=O)[C@H](CCCCNC(=O)CC[C@H](NC(=O)COCCOCCOCCNC(=S)Nc2ccc(C[C@H]3CN(CC(=O)O)CCN(CC(=O)O)CCN3CC(=O)O)cc2)C(=O)NCCCC[C@@H]2NC(=O)[C@@H](Cc3ccc(O)cc3)NC(=O)[C@H](CC(=O)O)NC(=O)CNC(=O)[C@H](CCCNC(=N)N)NC2=O)NC(=O)[C@@H](Cc2ccc(O)cc2)NC(=O)[C@H](CC(=O)O)NC(=O)CNC1=O [[^18F]AlF-NOTA-PRGD2] [listing 1 of 2 here]
– | – | – | – | 4.67 ± 1.08 | 1.21 ± 0.54 | 0.53 ± 0.11 | – | N=C(N)NCCC[C@@H]1NC(=O)[C@H](CCCCNC(=O)CC[C@H](NC(=O)COCCOCCOCCNC(=S)Nc2ccc(C[C@H]3CN(CC(=O)O)CCN(CC(=O)O)CCN3CC(=O)O)cc2)C(=O)NCCCC[C@@H]2NC(=O)[C@@H](Cc3ccc(O)cc3)NC(=O)[C@H](CC(=O)O)NC(=O)CNC(=O)[C@H](CCCNC(=N)N)NC2=O)NC(=O)[C@@H](Cc2ccc(O)cc2)NC(=O)[C@H](CC(=O)O)NC(=O)CNC1=O [[^18F]AlF-NOTA-PRGD2] [listing 2 of 2 here]
– | – | – | – | – | – | – | 2.42 ± 0.56 | N=C(N)NCCC[C@@H]1NC(=O)[C@H](CCCCNC(=O)CC[C@H](NC(=O)COCCOCCOCCNC(=S)Nc2ccc(C[C@H]3CN(CC(=O)O)CCN(CC(=O)O)CCN3CC(=O)O)cc2)C(=O)NCCCC[C@@H]2NC(=O)[C@@H](Cc3ccc(O)cc3)NC(=O)[C@H](CC(=O)O)NC(=O)CNC(=O)[C@H](CCCNC(=N)N)NC2=O)NC(=O)[C@@H](Cc2ccc(O)cc2)NC(=O)[C@H](CC(=O)O)NC(=O)CNC1=O [[^68Ga]Ga-NOTA-PRGD2, metal not drawn]

More lines, now with the values behind:

Structure (SMILES) | Volume of Distribution (VT), Kidneys (U87MG tumor-bearing mice) | Volume of Distribution (VT), Liver (U87MG tumor-bearing mice) | Volume of Distribution (VT), Muscle (U87MG tumor-bearing mice) | Volume of Distribution (VT), Tumor (U87MG tumor-bearing mice) | tissue uptake at 1 h [1, 2] [%ID/g] | tissue uptake at 1 h [1, 3] [%ID/g] | tissue uptake at 1 h [1, 4] [%ID/g] | tissue uptake at 1 h [1, 5] [%ID/g]
N=C(N)NCCC[C@@H]1NC(=O)[C@H](CCCCNC(=O)CC[C@H](NC(=O)COCCOCCOCCNC(=S)Nc2ccc(C[C@H]3CN(CC(=O)O)CCN(CC(=O)O)CCN3CC(=O)O)cc2)C(=O)NCCCC[C@@H]2NC(=O)[C@@H](Cc3ccc(O)cc3)NC(=O)[C@H](CC(=O)O)NC(=O)CNC(=O)[C@H](CCCNC(=N)N)NC2=O)NC(=O)[C@@H](Cc2ccc(O)cc2)NC(=O)[C@H](CC(=O)O)NC(=O)CNC1=O [[^68Ga]Ga-NOTA-PRGD2] [metal not drawn] | 3.37±0.56 | 1.24±0.11 | 0.57±0.064 | 2.07±0.12 | – | – | – | –
CC(F)C(=O)NCCOCCOCCOCC(=O)N[C@@H](CCC(=O)NCCCC[C@@H]1NC(=O)[C@@H](Cc2ccc(O)cc2)NC(=O)[C@H](CC(=O)O)NC(=O)CNC(=O)[C@H](CCCNC(=N)N)NC1=O)C(=O)NCCCC[C@@H]1NC(=O)[C@@H](Cc2ccc(O)cc2)NC(=O)[C@H](CC(=O)O)NC(=O)CNC(=O)[C@H](CCCNC(=N)N)NC1=O (some centres unmarked) [[^18F]FPPRGD2, reference compound] | 4.10±0.27 | 0.97±0.14 | 0.44±0.071 | 2.35±0.22 | 2.78 ± 0.58 | 1.1 ± 0.18 | 0.36 ± 0.089 | 2.91 ± 0.35
